From patent US12234245B2, “Sulfonimidamide compounds as inhibitors of interleukin-1 activity” (Genentech, Inc., priority 2018, dated 2025)
Where two headings read alike, the source gives them in different places.

What was measured:
Type in all cases: cell-based
TNFα = TNFα counter-screen in LPS and nigericin stimulated PBMCs; conditions: human PBMCs
Protocol: (§1) Human peripheral blood mononuclear cells (PBMCs), consisting of lymphocytes (T, B and NK cells), monocytes and dendritic cells, were freshly isolated from human peripheral blood from healthy donors. Cells were obtained through an IRB approved donor program by iXCells Biotechnologies where all the donors were tested for bacterial and viral infections. Cells were purified from peripheral blood using ficoll gradient centrifugation.
(§2) Fresh or cryopreserved PMBCs were seeded in V-bottom 96-well plate at 0.5-1×10^5 cells per well and incubated overnight at 37° C. with 5% CO2 in RPMI 1640 medium with GlutaMAX supplement, 4.5 g/L D-glucose, 10% Fetal Bovine Serum (FBS), […] Sodium Pyruvate, 1% Penicillin/Streptomycin, 10 mM HEPES and 0.05 mM of β-mercaptoethanol. Freshly isolated or cryopreserved KCs cells were seeded in flat-bottom 96-well plates at 0.6-1.5×10^5 cells/well and incubated overnight at 37° C. 5% CO2 in RPMI 1640 Medium with GlutaMAX supplement, FBS, 1% Penicillin/Streptomycin and 10 mM HEPES. The following day, the cells were primed with 100 ng/mL of lipopolysaccharides (LPS; Sigma Aldrich) in FBS-free RPMI 1640 for 3 h. After the priming step, the media was removed and PBMCs were pre-incubated with serial concentrations of test compounds (0.00017-10 uM) or vehicle (DMSO) for 30 min in FBS-free media prior to addition of the NLRP3 activator. Cells were then stimulated with 10 uM Nigericin (Sigma Aldrich; InvivoGen) for 1.5 h. Plates were centrifuged at 1,500 rpm for 3 minutes to pellet cells and supernatant was transferred into new plates for subsequent experiments.
For ELISA assays cells were seeded into 96-well plates. Post study, supernatants were removed and the levels of mature IL-1β, IL18 and TNFα (Quantikine ELISA, R&D systems) were measured in cell conditioned media by ELISA according to manufacturer's instructions.
TNFα levels of LPS and nigericin stimulated cells were measured by HTRF assay (Cisbio, Bedford, MA). […] Measuring TNFalpha production also serves as a technical counter-screen to eliminate compounds that interfere with the HTRF reagents. Thus compounds that inhibit both IL-1β and TNFα levels are triaged for either being non-selective for inflammasome or interfering with the HTRF readout.

PBMCs = assay: CTG (CellTiter-Glo) viability assay in PBMCs; conditions: LPS and nigericin stimulated
Protocol: as §1, §2
Viability of compound treated cells was measured using CellTiter-Glo® assay (Promega, Madison, Wis.) that measures the ATP content of cells which is proportional to the number of live cells within a well. This is a counter-screen to establish that the reduction of IL-1β levels in LPS and nigericin stimulated and compound treated cells is not due to cytotoxicity, but rather through the inhibition of the inflammasome pathway. Compounds inhibiting NRLP3 inflammasome activation ultimately increase the viability of LPS and nigericin stimulated cells by blocking NLRP3 mediated pyroptosis that would otherwise lead to cell lysis.

NLRP3 inflammasome [1] = target: T1, NLRP3 inflammasome (Homo sapiens, UniProt Q96P20); assay: NLRP3 inflammasome activation assay in PBMCs, IL-1β release (ELISA / HTRF); set-up: were freshly isolated from human peripheral blood from healthy donors; StemCells Technologies; host or cells: primary human PBMCs, LPS-primed, nigericin-stimulated; conditions: LPS primed
In short: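 Human PBMCs primed with 100 ng/mL LPS for 3 h, pre-treated with compound for 30 min (0.00017–10 µM, or from 40 µM in 2-fold 20-point series), then stimulated with 10 µM nigericin for 1.5 h at 37 °C. Released IL-1β in supernatant quantified by ELISA or by HTRF (665/620 ratio, overnight RT).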

NLRP3 inflammasome [2] = target: T1, NLRP3 inflammasome; assay: THP-1 ASC-GFP speck assay; set-up: host or cells: THP-1 ASC-GFP cells, PMA-differentiated, LPS-primed, nigericin-stimulated; conditions: THP-1 ASC-GFP cells, PMA differentiated, LPS primed, 10 μM nigericin; read-out: THP1 ASC Speck IC50
In short: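 PMA-differentiated (500 ng/ml, overnight) THP-1 ASC-GFP cells primed with 1 μg/mL LPS for 3 h, preincubated 30 min with compound (top 40 μM, 2-fold, 20 points), then stimulated with 10 μM nigericin for 90 min at 37 °C. After fixation and Hoechst staining, imaging gave the percentage of cells bearing a GFP ASC speck.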

[3] = PBMC, read-out: PBMC TNF α IC50
[4] = 10 uM nigericin, read-out: PBMC IL-1 β IC50
[5] = 10 μM nigericin, read-out: PBMC IL-1β IC50
[6] = human PBMCs, read-out: PBMC CTG IC50

T1 sequence (Q96P20 whole entry): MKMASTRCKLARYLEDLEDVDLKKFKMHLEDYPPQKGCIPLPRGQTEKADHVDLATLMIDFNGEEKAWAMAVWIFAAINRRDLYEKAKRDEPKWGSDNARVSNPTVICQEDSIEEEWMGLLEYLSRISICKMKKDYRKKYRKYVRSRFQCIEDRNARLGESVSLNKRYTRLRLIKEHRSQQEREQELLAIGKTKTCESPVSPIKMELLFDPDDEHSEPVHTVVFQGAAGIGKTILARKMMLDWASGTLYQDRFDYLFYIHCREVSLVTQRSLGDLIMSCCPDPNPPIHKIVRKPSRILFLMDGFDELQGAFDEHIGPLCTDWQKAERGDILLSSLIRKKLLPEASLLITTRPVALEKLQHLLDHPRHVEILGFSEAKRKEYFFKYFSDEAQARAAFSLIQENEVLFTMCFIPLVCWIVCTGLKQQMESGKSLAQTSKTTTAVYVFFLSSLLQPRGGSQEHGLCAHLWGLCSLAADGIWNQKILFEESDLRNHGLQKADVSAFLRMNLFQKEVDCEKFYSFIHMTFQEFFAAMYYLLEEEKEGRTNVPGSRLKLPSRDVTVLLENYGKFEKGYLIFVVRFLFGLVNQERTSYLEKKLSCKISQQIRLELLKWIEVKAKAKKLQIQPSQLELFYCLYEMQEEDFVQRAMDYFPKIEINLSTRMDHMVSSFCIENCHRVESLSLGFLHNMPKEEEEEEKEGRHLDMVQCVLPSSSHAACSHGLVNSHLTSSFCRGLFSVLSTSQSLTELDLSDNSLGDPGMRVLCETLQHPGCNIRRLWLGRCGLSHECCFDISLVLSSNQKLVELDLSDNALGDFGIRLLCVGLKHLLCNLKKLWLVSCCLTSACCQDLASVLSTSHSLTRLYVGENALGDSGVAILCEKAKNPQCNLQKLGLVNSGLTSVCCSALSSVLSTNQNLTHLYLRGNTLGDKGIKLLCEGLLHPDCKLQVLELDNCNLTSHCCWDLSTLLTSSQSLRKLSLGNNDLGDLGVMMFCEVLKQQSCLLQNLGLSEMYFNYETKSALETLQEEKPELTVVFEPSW

| IC50 (NLRP3 inflammasome [1]; [4]) [µM] | IC50 (NLRP3 inflammasome [1]; [5]) [µM] | Structure (SMILES) | IC50 (TNFα; [3]) [µM] | IC50 (PBMCs; Homo sapiens, PBMC) [µM] | IC50 (PBMCs; [6]) [µM] | further results |
| --- | --- | --- | --- | --- | --- | --- |
| 1 to 10 | – | Cn1ccc(S(=N)(=O)NC(=O)Nc2c3c(cc4c2CCC4)CCC3)n1 (centres unmarked) | > 10 | < 0.1 | – | – |
| 0.1 to 1 | – | CN[C@@H]1COc2c(S(=N)(=O)NC(=O)Nc3c(C(C)C)cc(F)cc3C(C)C)cnn2C1 (some centres unmarked) | > 10 | 0.1 to 1 | – | – |
| < 0.1 | – | NS(=O)(=NC(=O)Nc1c2c(c(F)c3c1CCC3)CCC2)c1cnn2c1OCC2 (centres unmarked) | > 10 | 1 to 10 | – | – |
| < 0.1 | – | NS(=O)(=NC(=O)Nc1c2c(c(F)c3c1CCC3)CCC2)c1cnn2c1OCCCC2 (centres unmarked) | > 10 | > 10 | – | – |
| < 0.1 | – | N=S(=O)(NC(=O)Nc1c2c(cc3c1CCC3)CCC2)c1cnn2c1OC[C@@H](NCCF)C2 (some centres unmarked) | > 10 | 0.1 to 1 | – | – |
| > 10 | – | NS(=O)(=NC(=O)Nc1c2c(c(C(=O)O)c3c1CCC3)CCC2)c1cnn2c1OCCC2 (centres unmarked) | > 10 | > 10 | – | – |
| – | 1.39 | Cn1ccc(S(N)(=O)=NC(=O)Nc2c3c(cc4c2CCC4)CCC3)n1 (racemic) [Example 12, N-((1,2,3,5,6,7-hexahydro-s-indacen-4-yl)carbamoyl)-1-methyl-1H-pyrazole-3-sulfonimidamide] | – | 0.006 | – | IC50 (TNFα; PBMC): > 10 µM |
| – | 0.3 | CO[C@@H]1COc2c(S(N)(=O)=NC(=O)Nc3c(C(C)C)cc(F)cc3C(C)C)cnn2C1 (mixture of isomers) [Example 15, (6S)—N′-((4-fluoro-2,6-diisopropylphenyl)carbamoyl)-6-methoxy-6,7-dihydro-5H-pyrazolo[5,1-b][1,3]oxazine-3-sulfonimidamide] | – | 0.095 | – | IC50 (TNFα; PBMC): > 10 µM |
| – | 0.27 | CN[C@@H]1COc2c(S(N)(=O)=NC(=O)Nc3c(C(C)C)cc(F)cc3C(C)C)cnn2C1 (mixture of isomers) [Example 16, (6S)—N′-((4-fluoro-2,6-diisopropylphenyl)carbamoyl)-6-(methylamino)-6,7-dihydro-5H-pyrazolo[5,1-b][1,3]oxazine-3-sulfonimidamide] | – | 0.131 | – | IC50 (TNFα; PBMC): > 10 µM |
| – | 0.019 | CN[C@@H]1COc2c(S(N)(=O)=NC(=O)Nc3c4c(cc5c3CCC5)CCC4)cnn2C1 (mixture of isomers) [Example 17, (6S)—N′-((1,2,3,5,6,7-hexahydro-s-indacen-4-yl)carbamoyl)-6-(methylamino)-6,7-dihydro-5H-pyrazolo[5,1-b][1,3]oxazine-3-sulfonimidamide] | – | 0.008 | – | IC50 (TNFα; PBMC): > 10 µM |
| – | 0.016 | CO[C@@H]1COc2c(S(N)(=O)=NC(=O)Nc3c4c(c(F)c5c3CCC5)CCC4)cnn2C1 (mixture of isomers) [Example 18, (6S)—N′-((8-fluoro-1,2,3,5,6,7-hexahydro-s-indacen-4-yl)carbamoyl)-6-methoxy-6,7-dihydro-5H-pyrazolo[5,1-b][1,3]oxazine-3-sulfonimidamide] | – | 0.0001 | – | IC50 (TNFα; PBMC): > 10 µM |
| – | 4.72 | NS(=O)(=NC(=O)Nc1c2c(c(F)c3c1CCC3)CCC2)c1cnn2c1OCCC2 (single isomer, unassigned) [Example 21] | – | – | 1.05 | IC50 (TNFα; PBMC): > 10 µM |
| – | 8.82 | COC1COc2c(S(N)(=O)=NC(=O)Nc3c(C(C)C)cc(F)cc3C(C)C)cnn2C1 (single isomer, unassigned) [Example 23] | – | – | 0.039 | IC50 (TNFα; PBMC): > 10 µM |
| – | 0.24 | COC1COc2c(S(N)(=O)=NC(=O)Nc3c(C(C)C)cc(F)cc3C(C)C)cnn2C1 (single isomer, unassigned) [Example 24] | – | – | 0.127 | IC50 (TNFα; read-out: PBMC TNFα IC50): > 10 µM |
| – | > 10 | CNC1COc2c(S(N)(=O)=NC(=O)Nc3c(C(C)C)cc(F)cc3C(C)C)cnn2C1 (single isomer, unassigned) [Example 28] | – | – | – | IC50 (NLRP3 inflammasome [2]): 4.4 µM; IC50 (TNFα; read-out: PBMC TNFα IC50): > 10 µM |
| – | 0.006 | CN(C)C1COc2c(S(N)(=O)=NC(=O)Nc3c4c(cc5c3CCC5)CCC4)cnn2C1 (single isomer, unassigned) [Example 34] | – | – | 0.004 | IC50 (TNFα; read-out: PBMC TNFα IC50): > 10 µM |

| IC50 (NLRP3 inflammasome [1]; [4]) [µM] | IC50 (NLRP3 inflammasome [1]; [5]) [µM] | Structure (SMILES) | IC50 (TNFα; [3]) [µM] | IC50 (PBMCs; Homo sapiens, PBMC) [µM] | IC50 (PBMCs; [6]) [µM] | further results |
| --- | --- | --- | --- | --- | --- | --- |
| < 0.1 | – | NS(=O)(=NC(=O)Nc1c2c(cc3c1CCC3)CCC2)c1cnn2c1OCCC2 (single isomer, unassigned) [drawing 661] | > 10 | < 0.1 | – | – |
| 1 to 10 | – | N=S(=O)(NC(=O)Nc1c2c(cc3c1CCC3)CCC2)c1cnn2c1OCCC2 (single isomer, unassigned) [drawing 662] | – | – | < 0.1 | IC50 (TNFα; read-out: PBMC TNF α IC50): > 10 µM |
| < 0.1 | – | NS(=O)(=NC(=O)Nc1c2c(c(F)c3c1CCC3)CCC2)c1cnn2c1OCCC2 (single isomer, unassigned) [drawing 669] | > 10 | < 0.1 | – | – |
| 1 to 10 | – | N=S(=O)(NC(=O)Nc1c2c(c(F)c3c1CCC3)CCC2)c1cnn2c1OCCC2 (single isomer, unassigned) [drawing 670] | – | – | 0.1 to 1 | IC50 (TNFα; read-out: PBMC TNF α IC50): > 10 µM |
| 0.1 to 1 | – | CN[C@@H]1COc2c(S(=N)(=O)NC(=O)Nc3c(C(C)C)cc(F)cc3C(C)C)cnn2C1 (single isomer, unassigned) [drawing 675] | > 10 | > 10 | – | – |
| > 10 | – | CN[C@@H]1COc2c(S(=N)(=O)NC(=O)Nc3c(C(C)C)cc(F)cc3C(C)C)cnn2C1 (single isomer, unassigned) [drawing 676] | – | – | – | IC50 (TNFα; read-out: PBMC TNF α IC50): > 10 µM |
| 0.1 to 1 | – | CO[C@@H]1COc2c(S(=N)(=O)NC(=O)Nc3c(C(C)C)cc(F)cc3C(C)C)cnn2C1 (some centres unmarked) [drawing 663] | > 10 | < 0.1 | – | – |
| < 0.1 | – | CN[C@@H]1COc2c(S(=N)(=O)NC(=O)Nc3c4c(cc5c3CCC5)CCC4)cnn2C1 (some centres unmarked) [drawing 665] | > 10 | < 0.1 | – | – |
| < 0.1 | – | CO[C@@H]1COc2c(S(=N)(=O)NC(=O)Nc3c4c(c(F)c5c3CCC5)CCC4)cnn2C1 (some centres unmarked) [drawing 666] | > 10 | < 0.1 | – | – |
| 0.1 to 1 | – | CO[C@@H]1COc2c(S(=N)(=O)NC(=O)Nc3c4c(cc5c3CCC5)CCC4)cnn2C1 (some centres unmarked) [drawing 667] | > 10 | 0.1 to 1 | – | – |
| 1 to 10 | – | CO[C@@H]1COc2c(S(=N)(=O)NC(=O)Nc3c(C(C)C)cc(F)cc3C(C)C)cnn2C1 (some centres unmarked) [drawing 671] | – | – | < 0.1 | IC50 (TNFα; read-out: PBMC TNF α IC50): > 10 µM |
| 0.1 to 1 | – | CO[C@@H]1COc2c(S(=N)(=O)NC(=O)Nc3c(C(C)C)cc(F)cc3C(C)C)cnn2C1 (some centres unmarked) [drawing 672] | – | – | 0.1 to 1 | IC50 (TNFα; read-out: PBMC TNF α IC50): > 10 µM |
| 0.1 to 1 | – | CO[C@@H]1COc2c(S(=N)(=O)NC(=O)Nc3c4c(c(F)c5c3CCC5)CCC4)cnn2C1 (some centres unmarked) [drawing 679] | – | – | < 0.1 | IC50 (TNFα; read-out: PBMC TNF α IC50): > 10 µM |
| < 0.1 | – | CO[C@@H]1COc2c(S(=N)(=O)NC(=O)Nc3c4c(c(F)c5c3CCC5)CCC4)cnn2C1 (some centres unmarked) [drawing 680] | – | – | < 0.1 | IC50 (TNFα; read-out: PBMC TNF α IC50): > 10 µM |
| 0.1 to 1 | – | CN(C)[C@@H]1COc2c(S(=N)(=O)NC(=O)Nc3c4c(cc5c3CCC5)CCC4)cnn2C1 (some centres unmarked) [drawing 681] | > 10 | < 0.1 | – | – |
